This is an account of results in patent publication US8426441B2, “Inhibitors of bruton's tyrosine kinase” (Roche Palo Alto LLC, priority 2007, dated 2013).

One may read the melting point as the temperature of the solid-liquid transition.

For `Cc1c(NC(=O)c2ccc(N(C)C)cc2)cccc1-c1cc(NC(=O)NCCCO)c2nccn2c1` [Example I-69, 4-Dimethylamino-N-(3-{8-[3-(3-hydroxy-propyl)-ureido]-imidazo[1,2-a]pyridin-6-yl}-2-methyl-phenyl)-benzamide], the melting point fell in the range of 144.1 to 188.6 °C.

In the case of `Cc1c(NC(=O)c2ccc(C(C)(C)C)cc2)cccc1-c1cc(NC(=O)NC(C)C)c2nccn2n1` [Example I-6, 4-tert-Butyl-N-{3-[8-(3-isopropyl-ureido)-imidazo[1,2-b]pyridazin-6-yl]-2-methyl-phenyl}-benzamide], the melting point was in the range of 178 to 180 °C. As for `Cc1c(NC(=O)c2ccc(C(C)(C)C)cc2)cccc1-c1cc(NC(=O)NCCO)c2nccn2c1` [Example I-71, 4-tert-Butyl-N-(3-{8-[3-(2-hydroxy-ethyl)-ureido]-imidazo[1,2-a]pyridin-6-yl}-2-methyl-phenyl)-benzamide], the figure is 176 to 177 °C.

In the case of `CNC(=O)Nc1cc(-c2cccc(NC(=O)c3ccc(OC(C)C)cc3)c2C)cn2ccnc12` [Example I-81, 4-Isopropoxy-N-[2-methyl-3-[8-(3-methyl-ureido)-imidazo[1,2-a]pyridin-6-yl]-phenyl}-benzamide], the melting point was 147.1 to 151.7 °C.

For `CCC(=O)Nc1cc(-c2cccc(NC(=O)c3ccc(C(C)(C)C)cc3)c2C)cn2ccnc12` [Example I-54, 4-tert-Butyl-N-[2-methyl-3-(8-propionylamino-imidazo[1,2-a]pyridin-6-yl)-phenyl]-benzamide], the melting point lay in the range of 99 to 100 °C. `CCOC(=O)c1ccc(Nc2cc(-c3ccccc3)cn3ccnc23)nc1` [Example I-47, 6-(6-Phenyl-imidazo[1,2-a]pyridin-8-ylamino)-nicotinic acid ethyl ester] had a melting point of 141.5 to 142.5 °C.

With `CC(=O)Nc1cc(-c2cccc(NC(=O)c3ccc(C(C)(C)C)cc3)c2C)cn2ccnc12` [Example I-57, N-[3-(8-Acetylamino-imidazo[1,2-a]pyridin-6-yl)-2-methyl-phenyl]-4-tert-butyl-benzamide], the melting point is 132 to 133 °C. As for `Cc1c(NC(=O)c2ccc(N(C)C)cc2)cccc1-c1cc(NC(=O)NCCO)c2nccn2c1` [Example I-64, 4-Dimethylamino-N-(3-{8-[3-(2-hydroxy-ethyl)-ureido]-imidazo[1,2-a]pyridin-6-yl}-2-methyl-phenyl)-benzamide], the figure is 153.7 to 164.4 °C; as for `CNC(=O)Nc1cc(-c2cccc(NC(=O)N3CC(OC(C)(C)C)C3)c2C)cn2ccnc12` [Example I-75, 3-tert-Butoxy-azetidine-1-carboxylic acid {2-methyl-3-[8-(3-methyl-ureido)-imidazo[1,2-a]pyridin-6-yl]-phenyl}-amide], 158 to 161 °C; as for `O=C(Cc1cccc(-c2cc(Nc3ccc(C(=O)N4CCOCC4)cn3)c3nccn3c2)c1)N1CC(OC(C(F)(F)F)C(F)(F)F)C1` [Example I-90, 2-(3-{8-[5-(Morpholine-4-carbonyl)-pyridin-2-ylamino]-imidazo[1,2-a]pyridin-6-yl}-phenyl)-1-[3-(2,2,2-trifluoro-1-trifluoromethyl-ethoxy)-azetidin-1-yl]-ethanone], 137 to 138 °C. Then `CNC(=O)Nc1cc(-c2cccc(CC(=O)N3Cc4ccccc4C3)c2)nn2ccnc12` [Example I-14, 1-(6-{3-[2-(1,3-Dihydro-isoindol-2-yl)-2-oxo-ethyl]-phenyl}-imidazo[1,2-b]pyridazin-8-yl)-3-methyl-urea], with 244 to 245 °C; and `CC(O)(C#CCNC(=O)Cc1cccc(-c2cc(Nc3ccc(C(=O)N4CCOCC4)cn3)c3nccn3c2)c1)C(F)(F)F` (stereo not drawn) [Example I-84, 2-(3-{8-[5-(Morpholine-4-carbonyl)-pyridin-2-ylamino]-imidazo[1,2-a]pyridin-6-yl}-phenyl)-N-(5,5,5-trifluoro-4-hydroxy-4-methyl-pent-2-ynyl)-acetamide], with 136.8 to 147.5 °C.
